Measured values as given in US20220354963A1, “EXTRACELLULAR VESICLE LINKED TO MOLECULES AND USES THEREOF” (Codiak BioSciences, Inc., priority 2019, published 2022).
pIC50: −log10 of the molar value.

Key:
[1] = system: GAPDH; assay: GAPDH inhibition in PANC-1 cells, same assay; format: cell-based, human; conditions: 2 point DR data
Description: (§1) The PANC-1 cells were grown in cell culture media and seeded onto a 96 well plate at a density of 20,000 cells/well. ASOs were tested in two separate cohorts: 2 doses or 5 doses were given to the PANC-1 cells (See TABLE 3) at final concentrations of 20 nM and 2 nM, respectively. The assay used Lipofectamine2000 transfection and a 48 hr treatment cycle, with incubation at 37° C. and 5% C02. Analysis of the mRNA expression was then carried out using a branched DNA assay.

[2] = system: STAT3 mRNA; assay: STAT3 mRNA expression in IL-6 stimulated PANC-1 cells, branched DNA assay; format: cell-based, human; conditions: 5 point DR data
[3] = system: STAT3 mRNA; assay: as above; format: cell-based, human; conditions: for STAT3 Inhibition 2 nM / STAT3 Inhibition 20 nM: 2 point DR data; for pIC50: 5 point DR data, Lipofectamine2000 transfection, 48 hr, read-out: STAT3 PANC1 IC50 Prism
Description: as §1, with “The ASOs of the present disclosure were tested for their ability to reduce STAT3 mRNA expression in IL-6 stimulated PANC-1 cells. The PANC-1” for “The PANC-1”

[4] = system: IL-1β; assay: In vivo peritonitis model, intraperitoneal LPS challenge, serum IL-1β; set-up: species or system mouse; conditions: pre-treatment intraperitoneally 1 hour prior to challenge; 3 hours post-challenge
Description: Intraperitoneal LPS challenge induces the production of IL-1β in mice, which can be detected in the systemic circulation 3 hours post-challenge.

Molecule | GAPDH Inhibition 20 nM [1] | STAT3 Max inihibition 24 nM [2] | STAT3 Inhibition 2 nM [3] | STAT3 Inhibition 20 nM [3] | pIC50 [3] | induction of IL-1β in the serum of LPS-challenged mice [4]
116 (CTCCTGTTGATCGCAGCGAA; chemistry not given here) [compound 116] | 16.00 | 69.78 | 64.5 | 85.5 | 8.73 | 
120 (ATTATCTGAACCCCACTTCG; chemistry not given here) [compound 120] | 12.00 | 87.43 | 62.8 | 93.4 | 8.69 | 
124 (ATAGAGATTCTCGAAAGGTA; chemistry not given here) [compound 124] | 13.00 | 86.46 | 62.6 | 83.3 | 8.80 | 
125 (CACGTACTTTCTGTACTTCT; chemistry not given here) [compound 125] | 14.00 | 81.67 | 61.7 | 85.1 | 8.64 | 
126 (TGGAATCTGCTTCTCACGTA; chemistry not given here) [compound 126] | 13.00 | 87.71 | 61.4 | 90.7 | 8.56 | 
128 (ACCCAGACGGGCATTCCTGT; chemistry not given here) [compound 128] | 19.00 | 79.56 | 61.1 | 81.1 | 8.45 | 
130 (TGTAGCGTTTGTTGAGGCTC; chemistry not given here) [compound 130] | 13.00 | 72.16 | 59.3 | 80.7 | 8.78 | 
131 (AGTCGTGTGTAGCGTTTGTT; chemistry not given here) [compound 131] | 12.00 | 75.20 | 58.9 | 90.7 | 8.55 | 
133 (GCAGTCGTGTGTAGCGTTTG; chemistry not given here) [compound 133] | 14.00 | 81.73 | 55.9 | 90.7 | 8.65 | 
134 (CGCAGTCGTGTGTAGCGTTT; chemistry not given here) [compound 134] | 10.00 | 77.94 | 54.3 | 82.8 | 8.67 | 
135 (ACGTCTTGGTCTTGCCGATG; chemistry not given here) [compound 135] | 4.00 | 78.59 | 53.9 | 84.2 | 8.98 | 
137 (ATCTTAATGGGACTCACGGG; chemistry not given here) [compound 137] | −2.00 | 79.46 | 53.0 | 87.4 | 8.74 | 
138 (CCATCTTAATGGGACTCACG; chemistry not given here) [compound 138] | 9.00 | 85.33 | 53.0 | 86.8 | 8.88 | 
139 (ACTCCATCTTAATGGGACTC; chemistry not given here) [compound 139] | 10.00 | 72.50 | 52.8 | 83.4 | 8.40 | 
142 (GGCAGCAGCTCATGATCAGG; chemistry not given here) [compound 142] | 9.00 | 76.10 | 51.7 | 80.0 | 8.17 | 
145 (GTCCTATGTGCTCGTCAAAG; chemistry not given here) [compound 145] | 17.00 | 85.73 | 50.2 | 89.2 | 8.51 | 
CC(C)(O)c1coc(S(=O)(=O)NC(=O)Nc2c3c(cc4c2CCC4)CCC3)c1 [MCC950] |  |  |  |  |  | inhibited
